Marks after values point to notes of the source that are not given here.
How the values were obtained:
[1] = system: patients who have neuropathic pain around the low back and the lower limbs; test: Pain-associated QOL by JOABPEQ (social life function) in patients with neuropathic pain; assay type: in vivo, human
Procedure: (§1) Compound A and corresponding placebo were injected to the patients who have neuropathic pain around the low back and the lower limbs twice daily for 14 days. For the first 3 days, 30 μg of Compound A was administered twice daily (60 μg/day), and then 60 μg of Compound A was administer twice daily (120 μg/day) for the next 11 days.
The patient's pain-associated quality of life (QOL) was assessed using Japan Orthopedic Association Back Pain Evaluation questionnaires (JOABPEQ). Patients self-evaluated their QOL before (Pre-Treatment), 8 days (Day 8) and 15 days (Day 15) after start treatment by Compound A or placebo.

[2] = system: neuropathic pain model rats; test: Pain threshold in neuropathic pain model rats (L4/L5 nerve root ligation, Dynamic Plantar Aesthesiometer); assay type: in vivo, rat; conditions: for Pain threshold, During treatment 2 day: 2-day after start of administration; for Pain threshold, During treatment 4-day: 4-day after start of administration; for Pain threshold, During treatment 7-day: 7-day after start of administration; for Pain threshold, 10-day: 10-day after start of administration; for Pain threshold, Pre-treatment: baseline, before start of administration
[3] = system: patients who have neuropathic pain around the low back and the lower limbs; test: Pain intensity by Visual Analogue Scale (VAS), responder rate in patients with neuropathic pain; assay type: in vivo, human
Procedure: as §1
The intensity of pain was assessed using Visual Analogue Scale (VAS). A VAS is usually a horizontal line, 100 mm in length, anchored by no pain and awful pain at each end. The patient marks on the line the point that they feel represents their perception of their current state. The VAS score is determined by measuring in millimeters from the left hand end of the line to the point that the patient marks. VAS score was measured before (Pre-treatment) and 15-days (Day 15) after start treatment by Compound A or placebo.

[4] = 30 μg/kg intravenous twice a day for 7 days
[5] = 1 mg/kg oral twice a day for 7 days

In the case of `CCCCC(F)(F)C(=O)CC[C@H]1CCC(=O)[C@@H]1CCCCCCC(=O)O` [Compound A, (−)-7-[(1R,2R)-2-(4,4-difluoro-3-oxooctyl)-5-oxocyclopentyl]heptanoic acid], the “Change in score of social life function from pre-treatment, Day 15” value ([1]; injected twice daily for 14 days: 60 μg/day for 3 days, then 120 μg/day for 11 days, Day 15, JOABPEQ) is reported as 3.0 ± 2.8 (N = 20), the “Social life function (JOABPEQ factor)” value ([1]; injected twice daily for 14 days, vs placebo) is reported as “significantly improved” and the “Change in score of social life function from pre-treatment, Day 8” value ([1]; injected twice daily: 60 μg/day for 3 days, then 120 μg/day, Day 8, JOABPEQ) is reported as 2.7 ± 2.8 (N = 20) ^a. The “Pain threshold, During treatment 2 day” value [2, 4] was 6.8 ± 0.3 g, the “Pain threshold, During treatment 4-day” value [2, 4] was 7.6 ± 0.3 g and the “Pain threshold, During treatment 7-day” value [2, 4] was 8.1 ± 0.3 g. For the same compound, the “Pain threshold, 10-day” value [2, 4] was 8.4 g, the “Pain threshold, Pre-treatment” value ([2]; 30 μg/kg intravenous twice a day, 4 days after surgery) was 6.1 ± 0.2 g and the “Pain threshold of the model paw compared with vehicle-control group” value ([2]; intravenous, 30 μg/kg twice a day) was “statistically significantly increased”. The Rate of responder ([3]; injected twice daily for 14 days: 60 μg/day for 3 days, then 120 μg/day for 11 days, VAS Day 15 vs pre-treatment) was 94.4% (N = 18) * and the “Responder rate compared with placebo treated group” value ([3]; injected twice daily for 14 days, VAS Day 15) was “significantly higher”.
`CCCCC(F)(F)C(=O)CC[C@H]1CCC(=O)[C@@H]1CCCC/C=C/C(=O)O` [Compound B, (E)-7-[(1R,2R)-2-(4,4-difluoro-3-oxooctyl)-5-oxocyclopentyl]hept-2-enoic acid] was tested, and the “Pain threshold, During treatment 2 day” value [2, 5] was 7.7 ± 0.3 g, the “Pain threshold, During treatment 4-day” value [2, 5] was 8.2 g and the “Pain threshold, During treatment 7-day” value [2, 5] was 8.6 ± 0.2 g. For the same compound, the “Pain threshold, 10-day” value [2, 5] was 8.2 ± 0.2 g, the “Pain threshold, Pre-treatment” value ([2]; 1 mg/kg oral twice a day) was 6.8 ± 0.2 g and the “Pain threshold of the model paw compared with vehicle-control group” value ([2]; oral, 1 mg/kg twice a day for 7 days) was “statistically significantly increased”.
